Measured values: US10730815B2, “Method of producing purified stilbene compounds” (MORINAGA & CO., LTD., priority 2014, dated 2020)
Values belong to the compound of their own block, whether it stands above or below them.

Experiment: Precipitation of various stilbene compounds by γ-CD: concentration in supernatant (HPLC)
Format: physicochemical
Description: γ-CD solutions of six different concentrations (42.78, 85.56, 106.95, 128.33, 171.11, 213.89 mg/mL) were prepared.
The mixed solutions were stirred under light shielding conditions at 25° C. for 24 hours. Subsequently, they were subjected to centrifugation at 15,000 rpm at 25° C. for 5 minutes to collect the supernatants. These supernatants were further subjected to centrifugation using the same conditions to obtain another batch of supernatants.
Resveratrol (denoted by “Res” in the figure), rhapontigenin (denoted by “Rha” in the figure), and isorhapontigenin (denoted by “Isorha” in the figure) were used as the stilbene compounds to prepare respective solutions of the stilbene compounds. To each solution, γ-CD was added. Precipitation of these stilbene compounds by γ-CD and the relation between the concentration of γ-CD and the precipitation of the stilbene compounds were examined. Procedures for the preparation of the solutions and the measurement using HPLC were similar to those described in the above Example 1(3).

- Concentration of Isorha in liquid (γ-CD 0 mg/mL final): 190000 ng/mL
- Concentration of Isorha in liquid (γ-CD 12.8 mg/mL final): 0 ng/mL
- Concentration of Isorha in liquid (γ-CD 25.7 mg/mL final): 0 ng/mL
- Concentration of Isorha in liquid (γ-CD 32.1 mg/mL final): 0 ng/mL
- Concentration of Isorha in liquid (γ-CD 38.5 mg/mL final): 0 ng/mL
- Concentration of Isorha in liquid (γ-CD 51.3 mg/mL final): 0 ng/mL
- Concentration of Isorha in liquid (γ-CD 64.2 mg/mL final): 0 ng/mL
SMILES: COc1cc(/C=C/c2cc(O)cc(O)c2)ccc1O [Isorha, isorhapontigenin]

- Concentration of Res in liquid (γ-CD 0 mg/mL final): 28000 ng/mL
- Concentration of Res in liquid (γ-CD 12.8 mg/mL final): 20000 ng/mL
- Concentration of Res in liquid (γ-CD 25.7 mg/mL final): 12000 ng/mL
- Concentration of Res in liquid (γ-CD 32.1 mg/mL final): 10000 ng/mL
- Concentration of Res in liquid (γ-CD 38.5 mg/mL final): 8200 ng/mL
- Concentration of Res in liquid (γ-CD 51.3 mg/mL final): 5800 ng/mL
- Concentration of Res in liquid (γ-CD 64.2 mg/mL final): 3700 ng/mL
SMILES: Oc1ccc(/C=C/c2cc(O)cc(O)c2)cc1 [Res, Resveratrol]

- Concentration of Rha in liquid (γ-CD 0 mg/mL final): 97000 ng/mL
- Concentration of Rha in liquid (γ-CD 12.8 mg/mL final): 60000 ng/mL
- Concentration of Rha in liquid (γ-CD 25.7 mg/mL final): 20000 ng/mL
- Concentration of Rha in liquid (γ-CD 32.1 mg/mL final): 17000 ng/mL
- Concentration of Rha in liquid (γ-CD 38.5 mg/mL final): 13000 ng/mL
- Concentration of Rha in liquid (γ-CD 51.3 mg/mL final): ≤10000 ng/mL
- Concentration of Rha in liquid (γ-CD 64.2 mg/mL final): ≤10000 ng/mL
SMILES: COc1ccc(/C=C/c2cc(O)cc(O)c2)cc1O [Rha, rhapontigenin]
